Laboratory results as given in PubChem BioAssay (NCI).
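Dose response: 5 concentrations. Exposure: 48 h. Format: 96-well plates. Endpoint: linear interpolation; highest concentration if not reached. TGI: concentration producing complete growth inhibition.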

Key:
Test in all cases: NCI anticancer screen, dose series, 48 h
HCT-116 colon = tested on: HCT-116 colon
SNB-19 CNS = tested on: SNB-19 CNS
A498 renal = tested on: A498 renal
CAKI-1 renal = tested on: CAKI-1 renal
SK-MEL-2 melanoma = tested on: SK-MEL-2 melanoma
LOX IMVI melanoma = tested on: LOX IMVI melanoma
UACC-62 melanoma = tested on: UACC-62 melanoma
IGROV1 ovarian = tested on: IGROV1 ovarian
SK-MEL-28 melanoma = tested on: SK-MEL-28 melanoma
SF-539 CNS = tested on: SF-539 CNS
TK-10 renal = tested on: TK-10 renal
SK-OV-3 ovarian = tested on: SK-OV-3 ovarian
ACHN renal = tested on: ACHN renal
SNB-75 CNS = tested on: SNB-75 CNS
COLO 205 colon = tested on: COLO 205 colon
NCI-H460 lung = tested on: NCI-H460 lung
M19-MEL melanoma = tested on: M19-MEL melanoma
HOP-62 NSCLC = tested on: HOP-62 NSCLC
KM20L2 colon = tested on: KM20L2 colon
UO-31 renal = tested on: UO-31 renal
DMS 114 small cell lung = tested on: DMS 114 small cell lung
DMS 273 small cell lung = tested on: DMS 273 small cell lung
OVCAR-3 ovarian = tested on: OVCAR-3 ovarian
SF-268 CNS = tested on: SF-268 CNS
SR leukemia = tested on: SR leukemia
MALME-3M melanoma = tested on: MALME-3M melanoma
HL-60(TB) leukemia = tested on: HL-60(TB) leukemia
SNB-78 CNS = tested on: SNB-78 CNS
RPMI-8226 leukemia = tested on: RPMI-8226 leukemia
A549 NSCLC = tested on: A549 NSCLC
K-562 leukemia = tested on: K-562 leukemia
SK-MEL-5 melanoma = tested on: SK-MEL-5 melanoma
RXF 393 renal = tested on: RXF 393 renal
SW-620 colon = tested on: SW-620 colon
NCI-H226 lung = tested on: NCI-H226 lung
MOLT-4 leukemia = tested on: MOLT-4 leukemia
KM12 colon = tested on: KM12 colon
SN12C renal = tested on: SN12C renal
NCI-H23 lung = tested on: NCI-H23 lung
EKVX NSCLC = tested on: EKVX NSCLC
XF 498 CNS = tested on: XF 498 CNS
HOP-92 NSCLC = tested on: HOP-92 NSCLC
U251 CNS = tested on: U251 CNS
HT29 colon = tested on: HT29 colon
OVCAR-8 ovarian = tested on: OVCAR-8 ovarian
OVCAR-5 ovarian = tested on: OVCAR-5 ovarian
LXFL 529 NSCLC = tested on: LXFL 529 NSCLC
DLD-1 colon = tested on: DLD-1 colon
HOP-18 NSCLC = tested on: HOP-18 NSCLC
OVCAR-4 ovarian = tested on: OVCAR-4 ovarian
UACC-257 melanoma = tested on: UACC-257 melanoma
SF-295 CNS = tested on: SF-295 CNS
CCRF-CEM leukemia = tested on: CCRF-CEM leukemia
HCC-2998 colon = tested on: HCC-2998 colon
M14 melanoma = tested on: M14 melanoma
NCI-H522 lung = tested on: NCI-H522 lung
HCT-15 colon = tested on: HCT-15 colon
786-0 renal = tested on: 786-0 renal
RXF-631 renal = tested on: RXF-631 renal

Measured: TGI

CCCCSC(=CC(=O)c1cccc(C(=O)C=C(SCCCC)SCCCC)n1)SCCCC
not listed: RXF-631 renal
> 100 µM: all other assays above

COc1ccc2c3ccc4c(c3n(C)c2c1)C(=O)C=CC4=O
59.6 µM: ACHN renal
13.6 µM: MOLT-4 leukemia
22.2 µM: SR leukemia
48.4 µM: HCT-116 colon | RPMI-8226 leukemia
30.6 µM: SW-620 colon
90.3 µM: UO-31 renal
37.5 µM: RXF 393 renal
19.8 µM: HL-60(TB) leukemia
46.2 µM: M19-MEL melanoma
28.6 µM: LXFL 529 NSCLC
49.9 µM: CCRF-CEM leukemia
22.4 µM: NCI-H522 lung
26.6 µM: K-562 leukemia
52.5 µM: XF 498 CNS
33.2 µM: OVCAR-8 ovarian
32.9 µM: 786-0 renal
92.5 µM: OVCAR-4 ovarian
52.8 µM: SF-539 CNS
30.2 µM: DLD-1 colon
32.3 µM: HOP-92 NSCLC
not listed: CAKI-1 renal | SK-MEL-2 melanoma | LOX IMVI melanoma | TK-10 renal | NCI-H460 lung | DMS 114 small cell lung | OVCAR-3 ovarian | KM12 colon | OVCAR-5 ovarian | RXF-631 renal
> 100 µM: all other assays above

O=C1Cc2ccccc2N1/N=C\c1ccc([N+](=O)[O-])cc1
not listed: SR leukemia | RXF 393 renal | SN12C renal | LXFL 529 NSCLC | NCI-H522 lung | RXF-631 renal
> 100 µM: all other assays above

O/N=C(\C(=N/O)Nc1ccc(-c2ccc(NC(=N/O)/C(=N\O)c3ccccc3)cc2)cc1)c1ccccc1
45 µM: OVCAR-8 ovarian
29.1 µM: LOX IMVI melanoma
44 µM: K-562 leukemia
49.8 µM: SW-620 colon
80.6 µM: UACC-257 melanoma
57.9 µM: RPMI-8226 leukemia | EKVX NSCLC
27.5 µM: OVCAR-5 ovarian
40.2 µM: OVCAR-3 ovarian
32.1 µM: NCI-H23 lung
53.8 µM: DLD-1 colon
97.2 µM: ACHN renal
36.5 µM: KM20L2 colon
37.3 µM: HOP-18 NSCLC
79.1 µM: A549 NSCLC
34.6 µM: HCT-116 colon
35.3 µM: SF-539 CNS
36.3 µM: SK-MEL-2 melanoma | DMS 273 small cell lung
82.4 µM: TK-10 renal
37.4 µM: SF-295 CNS
29.2 µM: HT29 colon
30.1 µM: HOP-62 NSCLC
97.4 µM: SNB-78 CNS
35.4 µM: UACC-62 melanoma
69.2 µM: SF-268 CNS | NCI-H226 lung
33.6 µM: KM12 colon
33.8 µM: SK-OV-3 ovarian
33.3 µM: NCI-H522 lung
70 µM: HCT-15 colon
41.4 µM: 786-0 renal
46.3 µM: CCRF-CEM leukemia
58.1 µM: HOP-92 NSCLC
97.3 µM: SN12C renal
62.9 µM: CAKI-1 renal
57.6 µM: IGROV1 ovarian
55.6 µM: HL-60(TB) leukemia
51 µM: A498 renal
31.4 µM: M19-MEL melanoma
44.7 µM: MALME-3M melanoma
50.7 µM: SNB-19 CNS
82.9 µM: UO-31 renal
32.8 µM: M14 melanoma
32.2 µM: LXFL 529 NSCLC
60.9 µM: U251 CNS
41.3 µM: MOLT-4 leukemia | XF 498 CNS
34.8 µM: SK-MEL-5 melanoma
32.4 µM: NCI-H460 lung
30.4 µM: COLO 205 colon
18.7 µM: HCC-2998 colon

COc1cc(C(C)c2cc3c(cc2OCCN)OCO3)cc(OC)c1OC (stereo not given)
80.8 µM: KM20L2 colon
95.7 µM: RXF 393 renal
46.8 µM: SNB-75 CNS
47 µM: HL-60(TB) leukemia
not listed: SK-OV-3 ovarian | SNB-78 CNS | SK-MEL-5 melanoma | XF 498 CNS | HOP-92 NSCLC | HOP-18 NSCLC
> 100 µM: all other assays above
